≈ marks a conversion by molar mass, not a printed value. Like-named read-outs stand apart in the source and are kept apart here.
Assays:
HIV = assay: microbe, parasite or virus in culture; type: cell-based
Protocol: Anti-HIV activity tests in vitro of the compounds according to the present invention were performed as described in J. Med. Chem, 34, 357, 1991. Inhibition by the compounds of virus-induced cytotoxic effect in MT-4 cells was measured as follows.
(§1) MT-4 cells were suspended in culture media at 2.5×10^5 cells/ml and infected with 1000 CCID50 (50% cell culture infective dose) of HIV. Immediately after virus infection, 100 μl of cell suspension was brought into each well of a flat-bottomed microtitray containing various concentrations of the test compounds. After 4 or 5 days incubation at 37° C., efficacy of the compounds was determined by the MTT method. Cytotoxicity of the compounds was assessed in parallel with their antiviral activity, based on viability of mock-infected host cells as determined by the MTT method.

mock-infected MT-4 cells = assay: Cytotoxicity based on viability of mock-infected host cells (MTT method); type: cell-based
Protocol: as §1

[1] = Human immunodeficiency virus 1, MT4, HIV-infected MT-4 cells, MTT method, 4 or 5 days at 37° C., read-out: ED50 (the source's name)
[2] = mock-infected MT-4 cells, MTT method, 4 or 5 days at 37° C.
[3] = Human immunodeficiency virus 1, MT4, read-out: ED50
[4] = HIV-infected MT-4 cells, MTT method, 4 or 5 days at 37° C.

Row | melting point [°C] | EC50 (HIV; [1]) [ng/mL] | SMILES | CD50 (mock-infected MT-4 cells; [2]) [µg/mL] | EC50 (HIV; [3]) [ng/mL] | ED50 (HIV; [4]) [ng/mL] | CD50 (mock-infected MT-4 cells) [µg/mL]
1 | 161 to 163 | 2.7 (≈ 0.00817 µM) | CCc1c(Sc2cc(C)cc(C)c2)n(CC2CC2)c(=O)[nH]c1=O [Example 1, 1-(Cyclopropyl)methyl-5-ethyl-6-(3,5-dimethylphenyl)thio-2,4-pyrimidinedione] | 4.75 |  |  | 
2 | 234 to 236 | 1.1 (≈ 0.00337 µM) | CCc1c(C(=O)c2cc(C)cc(C)c2)n(CC2CC2)c(=O)[nH]c1=O [Example 5, 1-(Cyclopropyl)methyl-5-ethyl-6-(3,5-dimethylbenzoyl)-2,4-pyrimidinedione] | 39.4 |  |  | 
3 | 200 to 202 | 2.7 (≈ 0.00793 µM) | CCc1c(C(=O)c2cc(C)cc(C)c2)n(CC2CCC2)c(=O)[nH]c1=O [Example 11, 1-(Cyclobutyl)methyl-5-ethyl-6-(3,5-dimethylbenzoyl)-2,4-pyrimidinedione] | 89.1 |  |  | 
4 | 171 to 173 | 2.7 (≈ 0.00762 µM) | Cc1cc(C)cc(C(=O)c2c(C(C)C)c(=O)[nH]c(=O)n2CC2CCC2)c1 [Example 12, 1-(Cyclobutyl)methyl-5-isopropyl-6-(3,5-dimethylbenzoyl)-2,4-pyrimidinedione] | 8.5 |  |  | 
5 | 188 to 190 | 0.9 (≈ 0.00239 µM) | Cc1cc(C)cc(C(=O)c2c(C(C)C)c(=O)[nH]c(=O)n2Cc2ccccc2)c1 [Example 24, 1-Benzyl-5-isopropyl-6-(3,5-dimethylbenzoyl)-2,4-pyrimidinedione] | 5.20 |  |  | 
6 | 130 to 131 | 3 (≈ 0.00757 µM) | CCc1c(Sc2cc(C)cc(C)c2)n(Cc2cccc(OC)c2)c(=O)[nH]c1=O [Example 25, 1-(3-Methoxybenzyl)-5-ethyl-6-(3,5-dimethylphenyl)thio-2,4-pyrimidinedione] | 9.04 |  |  | 
7 | 135 to 137 | 3 (≈ 0.00731 µM) | COc1cccc(Cn2c(Sc3cc(C)cc(C)c3)c(C(C)C)c(=O)[nH]c2=O)c1 [Example 26, 1-(3-Methoxybenzyl)-5-isopropyl-6-(3,5-dimethylphenyl)thio-2,4-pyrimidinedione] | 9.53 |  |  | 
8 | 158 to 159 | 6 (≈ 0.0152 µM) | COc1cccc(Cn2c(Oc3cc(C)cc(C)c3)c(C(C)C)c(=O)[nH]c2=O)c1 [Example 28, 1-(3-Methoxybenzyl)-5-isopropyl-6-(3,5-dimethylphenoxy)-2,4-pyrimidinedione] | 30.60 |  |  | 
9 | 148 to 150 | 69 (≈ 0.159 µM) | CCc1c(Oc2cc(C)cc(C)c2)n(Cc2ccc(OC(F)(F)F)cc2)c(=O)[nH]c1=O [Example 33, 1-(4-Trifluoromethoxybenzyl)-5-ethyl-6-(3,5-dimethyl-phenoxy)-2,4-pyrimidinedione] | >100.00 |  |  | 
10 | 173 to 175 | 45 (≈ 0.1 µM) | Cc1cc(C)cc(Oc2c(C(C)C)c(=O)[nH]c(=O)n2Cc2ccc(OC(F)(F)F)cc2)c1 [Example 34, 1-(4-Trifluoromethoxybenzyl)-5-isopropyl-6-(3,5-dimethylphenoxy)-2,4-pyrimidinedione] | 8.06 |  |  | 
11 | 238 to 240 | 82 (≈ 0.202 µM) | Cc1cc(C)cc(Sc2c(C(C)C)c(=O)[nH]c(=O)n2Cc2ccccc2C#N)c1 [Example 38, 1-(2-Cyanobenzyl)-5-isopropyl-6-(3,5-dimethylphenyl)-thio-2,4-pyrimidinedione] | >100.00 |  |  | 
12 | 267 to 270 | 619 (≈ 1.65 µM) | CCc1c(Oc2cc(C)cc(C)c2)n(Cc2ccccc2C#N)c(=O)[nH]c1=O [Example 39, 1-(2-Cyanobenzyl)-5-ethyl-6-(3,5-dimethylphenoxy)-2,4-pyrimidinedione] | 60.47 |  |  | 
13 | 257 to 259 | 3 (≈ 0.00774 µM) | CCc1c(C(=O)c2cc(C)cc(C)c2)n(Cc2ccccc2C#N)c(=O)[nH]c1=O [Example 41, 1-(2-Cyanobenzyl)-5-ethyl-6-(3,5-dimethylbenzoyl)-2,4-pyrimidinedione] | 2.56 |  |  | 

Second part, the compound before the results:

Row | SMILES | melting point [°C] | EC50 (HIV; [1]) [ng/mL] | CD50 (mock-infected MT-4 cells; [2]) [µg/mL] | EC50 (HIV; [3]) [ng/mL] | ED50 (HIV; [4]) [ng/mL] | CD50 (mock-infected MT-4 cells) [µg/mL]
14 | Cc1cc(C)cc(Oc2c(C(C)C)c(=O)[nH]c(=O)n2CC2CC2)c1 [Example 4, 1-(Cyclopropyl)methyl-5-isopropyl-6-(3,5-dimethylphenoxy)-2,4-pyrimidinedione] | 146 to 148 | < 0.2 | 12.70 |  |  | 
15 | Cc1cc(C)cc(C(=O)c2c(C(C)C)c(=O)[nH]c(=O)n2CC2CC2)c1 [Example 6, 1-(Cyclopropyl)methyl-5-isopropyl-6-(3,5-dimethylbenzoyl)-2,4-pyrimidinedione] | 193 to 195 | 2.2 (≈ 0.00646 µM) | 8.5 |  |  | 
16 | CCc1c(C(=O)c2cc(C)cc(C)c2)n(CC2CCCCC2)c(=O)[nH]c1=O [Example 17, 1-(Cyclohexyl)methyl-5-ethyl-6-(3,5-dimethylbenzoyl)-2,4-pyrimidinedione] | 177 to 179 |  | 7.10 | 13 (≈ 0.0353 µM) |  | 
17 | Cc1cc(C)cc(C(=O)c2c(C(C)C)c(=O)[nH]c(=O)n2CC2CCCCC2)c1 [Example 18, 1-(Cyclohexyl)methyl-5-isopropyl-6-(3,5-dimethylbenzoyl)-2,4-pyrimidinedione] | 160 to 162 |  | 8.00 | 13 (≈ 0.034 µM) |  | 
18 | CCc1c(C(=O)c2cc(C)cc(C)c2)n(Cc2ccccc2)c(=O)[nH]c1=O [Example 23, 1-Benzyl-5-ethyl-6-(3,5-dimethylbenzoyl)-2,4-pyrimidine-dione] | 202 to 204 | 1.6 (≈ 0.00441 µM) | 8.00 |  |  | 
19 | CCc1c(Oc2cc(C)cc(C)c2)n(Cc2cccc(OC)c2)c(=O)[nH]c1=O [Example 27, 1-(3-Methoxybenzyl)-5-ethyl-6-(3,5-dimethylphenoxy)-2,4-pyrimidinedione] | 133 to 135 | 14 (≈ 0.0368 µM) | 10.68 |  |  | 
20 | CCc1c(C(=O)c2cc(C)cc(C)c2)n(Cc2cccc(OC)c2)c(=O)[nH]c1=O [Example 29, 1-(3-Methoxybenzyl)-5-ethyl-6-(3,5-dimethylbenzoyl)-2,4-pyrimidinedione] | 185 to 187 | 3 (≈ 0.00764 µM) | 7.22 |  |  | 
21 | COc1cccc(Cn2c(C(=O)c3cc(C)cc(C)c3)c(C(C)C)c(=O)[nH]c2=O)c1 [Example 30, 1-(3-Methoxybenzyl)-5-isopropyl-6-(3,5-dimethylbenzoyl)-2,4-pyrimidinedione] | 184 to 186 | 2 (≈ 0.00492 µM) | 3.83 |  |  | 
22 | CCc1c(Sc2cc(C)cc(C)c2)n(Cc2ccc(OC(F)(F)F)cc2)c(=O)[nH]c1=O [Example 31, 1-(4-Trifluoromethoxybenzyl)-5-ethyl-6-(3,5-dimethylphenyl)thio-2,4-pyrimidinedione] | 138 to 140 | 17 (≈ 0.0377 µM) | 4.86 |  |  | 
23 | Cc1cc(C)cc(Sc2c(C(C)C)c(=O)[nH]c(=O)n2Cc2ccc(OC(F)(F)F)cc2)c1 [Example 32, 1-(4-Trifluoromethoxybenzyl)-5-isopropyl-6-(3,5-dimethylphenyl)thio-2,4-pyrimidinedione] | 124 to 126 | 17 (≈ 0.0366 µM) | 8.99 |  |  | 
24 | CCc1c(C(=O)c2cc(C)cc(C)c2)n(Cc2ccc(OC(F)(F)F)cc2)c(=O)[nH]c1=O [Example 35, 1-(4-Trifluoromethoxybenzyl)-5-ethyl-6-(3,5-dimethylbenzoyl)-2,4-pyrimidinedione] | 155 to 157 | 4 (≈ 0.00896 µM) | 33.83 |  |  | 
25 | Cc1cc(C)cc(C(=O)c2c(C(C)C)c(=O)[nH]c(=O)n2Cc2ccc(OC(F)(F)F)cc2)c1 [Example 36, 1-(4-Trifluoromethoxybenzyl)-5-isopropyl-6-(3,5-dimethyl-benzoyl)-2,4-pyrimidinedione] | 79 to 81 | 5 (≈ 0.0109 µM) | 7.88 |  |  | 
26 | CCc1c(Sc2cc(C)cc(C)c2)n(Cc2ccccc2C#N)c(=O)[nH]c1=O [Example 37, 1-(2-Cyanobenzyl)-5-ethyl-6-(3,5-dimethylphenyl)thio-2,4-pyrimidinedione] | 221 to 223 | 43 (≈ 0.11 µM) | >100.00 |  |  | 
27 | Cc1cc(C)cc(Oc2c(C(C)C)c(=O)[nH]c(=O)n2Cc2ccccc2C#N)c1 [Example 40, 1-(2-Cyanobenzyl)-5-isopropyl-6-(3,5-dimethylphenoxy)-2,4-pyrimidinedione] | 276 to 278 | > 100000 | >100.00 |  |  | 
28 | Cc1cc(C)cc(C(=O)c2c(C(C)C)c(=O)[nH]c(=O)n2CC2CO2)c1 (stereo not drawn) [Example 140, 1-(2,3-Epoxypropyl)-5-isopropyl-6-(3,5-dimethylbenzoyl)-2,4-pyrimidinedione] |  |  | 41.90 | 94 (≈ 0.275 µM) |  | 
29 | CCc1c(Sc2cc(C)cc(C)c2)n(Cc2occc2C(=O)OC)c(=O)[nH]c1=O [Example 151, 1-(3-Methoxycarbonyl-2-furanylmethyl)-5-ethyl-6-(3,55 dimethylphenyl)thio-2,4-pyrimidinedione] |  |  |  |  | 15 (≈ 0.0362 µM) | 8.67
30 | CCC(=O)Cn1c(C(=O)c2cc(C)cc(C)c2)c(CC)c(=O)[nH]c1=O [Example 163, 1-(2-Butanon-1-yl)-5-ethyl-6-(3,5-dimethylbenzoyl) δ 2,4-pyrimidinedione] |  |  | 9.31 |  | 3.4 (≈ 0.00993 µM) | 
